Data reported in ChEMBL document CHEMBL4020811, “JAK2 JH2 Fluorescence Polarization Assay and Crystal Structures for Complexes with Three Small Molecules” (ACS Med Chem Lett, 2017).

Target: Tyrosine-protein kinase JAK2 (Homo sapiens, UniProt O60674)
Test: Binding affinity to wild type JAK2 JH2 domain (unknown origin) by competitive fluorescence polarization assay

Sequence of Tyrosine-protein kinase JAK2 (O60674 whole entry, the tested form may be a part): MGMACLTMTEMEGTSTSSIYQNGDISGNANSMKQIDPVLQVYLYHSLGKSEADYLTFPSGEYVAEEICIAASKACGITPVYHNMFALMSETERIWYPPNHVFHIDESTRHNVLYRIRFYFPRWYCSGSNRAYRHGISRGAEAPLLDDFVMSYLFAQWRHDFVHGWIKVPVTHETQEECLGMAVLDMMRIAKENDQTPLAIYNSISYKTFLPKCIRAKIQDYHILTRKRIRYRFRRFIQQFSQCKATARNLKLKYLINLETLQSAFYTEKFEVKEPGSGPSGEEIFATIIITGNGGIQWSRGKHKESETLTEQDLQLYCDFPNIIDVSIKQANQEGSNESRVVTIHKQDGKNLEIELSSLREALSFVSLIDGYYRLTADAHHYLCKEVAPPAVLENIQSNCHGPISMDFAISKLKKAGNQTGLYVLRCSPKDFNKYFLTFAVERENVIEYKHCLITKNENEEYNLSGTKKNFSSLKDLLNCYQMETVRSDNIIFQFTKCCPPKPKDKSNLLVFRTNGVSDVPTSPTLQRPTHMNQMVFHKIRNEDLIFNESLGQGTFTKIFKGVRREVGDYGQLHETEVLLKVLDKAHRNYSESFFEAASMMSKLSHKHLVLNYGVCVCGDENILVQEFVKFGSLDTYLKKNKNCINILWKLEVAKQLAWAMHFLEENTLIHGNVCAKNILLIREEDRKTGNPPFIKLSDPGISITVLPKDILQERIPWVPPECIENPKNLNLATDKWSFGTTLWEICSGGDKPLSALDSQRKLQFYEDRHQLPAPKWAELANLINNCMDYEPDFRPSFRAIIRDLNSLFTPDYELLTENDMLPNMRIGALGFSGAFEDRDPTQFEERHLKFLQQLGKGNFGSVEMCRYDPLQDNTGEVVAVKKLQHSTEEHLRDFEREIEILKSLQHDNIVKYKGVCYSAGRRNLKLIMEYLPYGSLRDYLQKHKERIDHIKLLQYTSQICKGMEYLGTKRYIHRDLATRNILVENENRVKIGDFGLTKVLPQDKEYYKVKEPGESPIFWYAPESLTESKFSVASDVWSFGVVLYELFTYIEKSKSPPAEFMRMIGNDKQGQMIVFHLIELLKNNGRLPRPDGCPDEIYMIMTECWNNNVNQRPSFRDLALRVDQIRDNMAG

| Kd | Structure (SMILES) |
| --- | --- |
| 57.3 µM | N#Cc1ccc(Nc2nc(N)cc(-n3ccc(CO)n3)n2)cc1 |
| 7 µM | Cc1cc(C)n2c1C=C1C=CC(CCC(=O)NCCNC(=O)O[C@H]3[C@@H](O)[C@H](n4cnc5c(N)ncnc54)O[C@@H]3COP(=O)(O)OP(=O)(O)OP(=O)(O)O)=[N+]1[B-]2(F)F |

Second part, the compound before the results:

| Structure (SMILES) | Kd |
| --- | --- |
| CN(Cc1ccc(Nc2nc(N)n(C(=O)c3c(F)cccc3F)n2)cc1)C(=S)Nc1ccc2c(c1)C(=O)OC21c2ccc(O)cc2Oc2cc(O)ccc21 | 0.205 µM |
| N#Cc1ccc(Nc2nc(N)nc(-c3ccc(CO)o3)n2)cc1 | 122 µM |
| CS(=O)(=O)NCc1cn(-c2nc(N)nc(Nc3ccc(C#N)cc3)n2)nn1 | 106 µM |
| Nc1nc(Nc2ccc(C(=O)NCCCCCNC(=S)Nc3ccc4c(c3)C(=O)OC43c4ccc(O)cc4Oc4cc(O)ccc43)cc2)nn1C(=O)c1c(F)cccc1F | 0.227 µM |
